{
  "source": "patent US20040127518A1",
  "about": "“Modulation of anxiety through blockade of anandamide hydrolysis” (priority 2002, published 2004)",
  "key": {"[1]": {"test_system": "panel of 21 receptors, ion channels and neurotransmitter transporters", "test": "Panel of 21 receptors, ion channels and neurotransmitter transporters", "format": "binding", "settings": "10 μM; data not shown"}, "[2]": {"test": "Food intake in free-feeding rats", "format": "in vivo, rat", "settings": "UCM532 10 mg kg-1 i.p.; UCM597 0.3 mg kg-1 i.p.; data not shown", "method": "We recorded food intake in free-feeding rats by using an automated system (Scipro Inc., New York). Rats were acclimated to the test cages for three days prior to the tests. Each test began at the onset of the dark phase and lasted for 24 hours."}},
  "data": [
    {"compound": "CCCCNC(=O)Oc1ccc(OCc2ccccc2)cc1", "note": "[UCM532, n-Butylcarbamic acid 4-benzyloxyphenyl ester]", "values": [
      {"measurement": "interaction with panel of 21 receptors, ion channels and transporters", "setting": "[1]", "value": "did not significantly interact"},
      {"measurement": "hyperphagia (increased food intake)", "setting": "[2]", "value": "no"}
    ]}
  ]
}
